Calls of active or inactive are those of the source.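 The calls were made as follows: active = phosphatase PP5 activity blocked by at least 30% at 50 µM; inactive = the rest.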
Each compound was assayed against Serine/threonine-protein phosphatase 5 (Homo sapiens) (UniProt P53041) (assay: inhibitors of PP5 catalytic domain activity – biochemical, radiolabel, 33P-phosphohistone substrate, powder samples, selectivity assay for PP1 inhibitor project, late-stage follow-up (AID 652229)). Conditions: purified PP5c, 33P-phosphohistone dephosphorylation, scintillation; at 50 µM; hits give high values.
Sequence of Serine/threonine-protein phosphatase 5 (Homo sapiens) (P53041 whole entry, looked up, the tested form may be a part): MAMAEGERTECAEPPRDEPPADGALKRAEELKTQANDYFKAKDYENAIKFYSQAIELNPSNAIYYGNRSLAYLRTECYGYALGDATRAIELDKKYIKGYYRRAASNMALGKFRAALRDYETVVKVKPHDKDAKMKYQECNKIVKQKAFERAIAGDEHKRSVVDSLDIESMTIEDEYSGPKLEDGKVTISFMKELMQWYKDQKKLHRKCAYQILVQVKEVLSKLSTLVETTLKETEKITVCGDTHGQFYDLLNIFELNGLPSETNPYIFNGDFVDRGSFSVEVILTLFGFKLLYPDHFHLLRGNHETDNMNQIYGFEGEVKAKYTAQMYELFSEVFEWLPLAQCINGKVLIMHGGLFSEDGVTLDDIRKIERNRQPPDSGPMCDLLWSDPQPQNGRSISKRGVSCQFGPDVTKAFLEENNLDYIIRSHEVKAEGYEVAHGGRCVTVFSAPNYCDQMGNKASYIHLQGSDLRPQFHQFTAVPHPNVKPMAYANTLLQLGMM
`CN1CCN(C(c2ccccn2)c2cc(Cl)c3cccnc3c2O)CC1` (configuration not stated) was tested, and the inhibition was 3.05% (inactive).
`Oc1c(C(c2ccccn2)N2CCN(c3ccccc3F)CC2)cc(Cl)c2cccnc12` (configuration not stated) was tested, and the inhibition was -0.6% (inactive).
`CC(C)(C)OC(=O)N1CCN(C(c2ccccn2)c2cc(Cl)c3cccnc3c2O)CC1` (configuration not stated) was tested, and the inhibition was 0.25% (inactive).
For `CC1CCN(C(c2ccccn2)c2cc(Cl)c3cccnc3c2O)CC1` (configuration not stated), the inhibition was 6.08% (inactive).
With `Oc1c(C(c2ccccn2)N2CCC(Cc3ccccc3)CC2)cc(Cl)c2cccnc12` (configuration not stated) the inhibition was 4.23% (inactive).
For `Oc1c(C(c2ccccn2)N2CCNCC2)cc(Cl)c2cccnc12` (configuration not stated), the inhibition was 6.84% (inactive).
In the case of `CCN1CCN(C(c2ccccn2)c2cc(Cl)c3cccnc3c2O)CC1` (configuration not stated), the inhibition is reported as 3.21% (inactive).

Reference: PubChem BioAssay AID652229 (The Scripps Research Institute Molecular Screening Center, 2013)
